Measured values reported in PubChem BioAssay (NCI).
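96-well plates; 48 h exposure; 5 concentrations. Endpoints by linear interpolation between flanking doses. Not reached: highest tested concentration assigned. Abbreviation: GI50, concentration required for 50% inhibition of growth. Definition used: TGI = concentration required for complete inhibition of growth.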

Experiments:
Assay in all cases: growth of human tumour cells (NCI), 48 h
786-0 renal = test system: 786-0 renal
A498 renal = test system: A498 renal
A549 NSCLC = test system: A549 NSCLC
ACHN renal = test system: ACHN renal
BT-549 breast = test system: BT-549 breast
CAKI-1 renal = test system: CAKI-1 renal
CCRF-CEM leukemia = test system: CCRF-CEM leukemia
COLO 205 colon = test system: COLO 205 colon
DU-145 prostate = test system: DU-145 prostate
EKVX NSCLC = test system: EKVX NSCLC
HCC-2998 colon = test system: HCC-2998 colon
HCT-116 colon = test system: HCT-116 colon
HCT-15 colon = test system: HCT-15 colon
HL-60(TB) leukemia = test system: HL-60(TB) leukemia
HOP-62 NSCLC = test system: HOP-62 NSCLC
HOP-92 NSCLC = test system: HOP-92 NSCLC
HS 578T breast = test system: HS 578T breast
HT29 colon = test system: HT29 colon
IGROV1 ovarian = test system: IGROV1 ovarian
K-562 leukemia = test system: K-562 leukemia
KM12 colon = test system: KM12 colon
LOX IMVI melanoma = test system: LOX IMVI melanoma
M14 melanoma = test system: M14 melanoma
MALME-3M melanoma = test system: MALME-3M melanoma
MCF7 breast = test system: MCF7 breast
MDA-MB-231 breast = test system: MDA-MB-231 breast
MDA-MB-435 = test system: MDA-MB-435
MDA-MB-468 breast = test system: MDA-MB-468 breast
MOLT-4 leukemia = test system: MOLT-4 leukemia
NCI-H226 lung = test system: NCI-H226 lung
NCI-H23 lung = test system: NCI-H23 lung
NCI-H460 lung = test system: NCI-H460 lung
NCI-H522 lung = test system: NCI-H522 lung
NCI/ADR-RES ovarian = test system: NCI/ADR-RES ovarian
OVCAR-3 ovarian = test system: OVCAR-3 ovarian
OVCAR-4 ovarian = test system: OVCAR-4 ovarian
OVCAR-5 ovarian = test system: OVCAR-5 ovarian
OVCAR-8 ovarian = test system: OVCAR-8 ovarian
PC-3 prostate = test system: PC-3 prostate
RPMI-8226 leukemia = test system: RPMI-8226 leukemia
RXF 393 renal = test system: RXF 393 renal
SF-268 CNS = test system: SF-268 CNS
SF-295 CNS = test system: SF-295 CNS
SF-539 CNS = test system: SF-539 CNS
SK-MEL-2 melanoma = test system: SK-MEL-2 melanoma
SK-MEL-28 melanoma = test system: SK-MEL-28 melanoma
SK-MEL-5 melanoma = test system: SK-MEL-5 melanoma
SK-OV-3 ovarian = test system: SK-OV-3 ovarian
SN12C renal = test system: SN12C renal
SNB-19 CNS = test system: SNB-19 CNS
SNB-75 CNS = test system: SNB-75 CNS
SR leukemia = test system: SR leukemia
SW-620 colon = test system: SW-620 colon
T-47D breast = test system: T-47D breast
TK-10 renal = test system: TK-10 renal
U251 CNS = test system: U251 CNS
UACC-257 melanoma = test system: UACC-257 melanoma
UACC-62 melanoma = test system: UACC-62 melanoma
UO-31 renal = test system: UO-31 renal

Structure (SMILES): O=C(c1ccccc1)c1ccc2nc(-c3ccccc3Br)[nH]c2c1
- GI50 (786-0 renal): 2.37 µM
- TGI (786-0 renal): 4.77 µM
- GI50 (A498 renal): 17.3 µM
- TGI (A498 renal): 33 µM
- GI50 (A549 NSCLC): 10.2 µM
- TGI (A549 NSCLC): 28.2 µM
- GI50 (ACHN renal): 2.27 µM
- TGI (ACHN renal): 5.67 µM
- GI50 (BT-549 breast): 1.53 µM
- TGI (BT-549 breast): 3.15 µM
- GI50 (CAKI-1 renal): 3.24 µM
- TGI (CAKI-1 renal): 11.3 µM
- GI50 (CCRF-CEM leukemia): 2.24 µM
- TGI (CCRF-CEM leukemia): 15.9 µM
- GI50 (COLO 205 colon): 2.04 µM
- TGI (COLO 205 colon): 3.94 µM
- GI50 (DU-145 prostate): 4.33 µM
- TGI (DU-145 prostate): 15.4 µM
- GI50 (EKVX NSCLC): 2.11 µM
- TGI (EKVX NSCLC): 4.92 µM
- GI50 (HCC-2998 colon): 8.69 µM
- TGI (HCC-2998 colon): 21.7 µM
- GI50 (HCT-116 colon): 2.31 µM
- TGI (HCT-116 colon): 8.15 µM
- GI50 (HCT-15 colon): 1.74 µM
- TGI (HCT-15 colon): 3.78 µM
- GI50 (HL-60(TB) leukemia): 2.04 µM
- TGI (HL-60(TB) leukemia): 6.05 µM
- GI50 (HOP-62 NSCLC): 3.23 µM
- TGI (HOP-62 NSCLC): 8.5 µM
- GI50 (HOP-92 NSCLC): 2.08 µM
- TGI (HOP-92 NSCLC): 6.48 µM
- GI50 (HS 578T breast): 3.79 µM
- TGI (HS 578T breast): 54 µM
- GI50 (HT29 colon): 2.27 µM
- TGI (HT29 colon): 4.63 µM
- GI50 (IGROV1 ovarian): 3.51 µM
- TGI (IGROV1 ovarian): 13.9 µM
- GI50 (K-562 leukemia): 2.77 µM
- TGI (K-562 leukemia): > 100 µM
- GI50 (KM12 colon): 4.64 µM
- TGI (KM12 colon): 18.5 µM
- GI50 (LOX IMVI melanoma): 2.45 µM
- TGI (LOX IMVI melanoma): 10.4 µM
- GI50 (M14 melanoma): 1.77 µM
- TGI (M14 melanoma): 4.38 µM
- GI50 (MALME-3M melanoma): 2.11 µM
- TGI (MALME-3M melanoma): 6.35 µM
- GI50 (MCF7 breast): 2.15 µM
- TGI (MCF7 breast): 7.67 µM
- GI50 (MDA-MB-231 breast): 4.84 µM
- TGI (MDA-MB-231 breast): 19.5 µM
- GI50 (MDA-MB-435): 3.54 µM
- TGI (MDA-MB-435): 13.2 µM
- GI50 (MDA-MB-468 breast): 1.73 µM
- TGI (MDA-MB-468 breast): 3.9 µM
- GI50 (MOLT-4 leukemia): 2.21 µM
- TGI (MOLT-4 leukemia): 11.5 µM
- GI50 (NCI-H226 lung): 2.66 µM
- TGI (NCI-H226 lung): 12.2 µM
- GI50 (NCI-H23 lung): 2.08 µM
- TGI (NCI-H23 lung): 6.5 µM
- GI50 (NCI-H460 lung): 4.22 µM
- TGI (NCI-H460 lung): 19.8 µM
- GI50 (NCI-H522 lung): 1.53 µM
- TGI (NCI-H522 lung): 3.07 µM
- GI50 (NCI/ADR-RES ovarian): 2.44 µM
- TGI (NCI/ADR-RES ovarian): 6.66 µM
- GI50 (OVCAR-3 ovarian): 2.94 µM
- TGI (OVCAR-3 ovarian): 10.4 µM
- GI50 (OVCAR-4 ovarian): 3.72 µM
- TGI (OVCAR-4 ovarian): 13.7 µM
- GI50 (OVCAR-5 ovarian): 2.48 µM
- TGI (OVCAR-5 ovarian): 5.7 µM
- GI50 (OVCAR-8 ovarian): 3.81 µM
- TGI (OVCAR-8 ovarian): 35.4 µM
- GI50 (PC-3 prostate): 2.48 µM
- TGI (PC-3 prostate): 10.8 µM
- GI50 (RPMI-8226 leukemia): 2.65 µM
- TGI (RPMI-8226 leukemia): 11.8 µM
- GI50 (RXF 393 renal): 1.61 µM
- TGI (RXF 393 renal): 3.82 µM
- GI50 (SF-268 CNS): 3.1 µM
- TGI (SF-268 CNS): 12.3 µM
- GI50 (SF-295 CNS): 5.54 µM
- TGI (SF-295 CNS): 18.2 µM
- GI50 (SF-539 CNS): 1.77 µM
- TGI (SF-539 CNS): 3.33 µM
- GI50 (SK-MEL-2 melanoma): 2.01 µM
- TGI (SK-MEL-2 melanoma): 4.92 µM
- GI50 (SK-MEL-28 melanoma): 3.69 µM
- TGI (SK-MEL-28 melanoma): 14.7 µM
- GI50 (SK-MEL-5 melanoma): 1.85 µM
- TGI (SK-MEL-5 melanoma): 3.79 µM
- GI50 (SK-OV-3 ovarian): 4.1 µM
- TGI (SK-OV-3 ovarian): 12.6 µM
- GI50 (SN12C renal): 2.4 µM
- TGI (SN12C renal): 6.5 µM
- GI50 (SNB-19 CNS): 4.41 µM
- TGI (SNB-19 CNS): 16.8 µM
- GI50 (SNB-75 CNS): 3.23 µM
- TGI (SNB-75 CNS): 13.4 µM
- GI50 (SR leukemia): 2.51 µM
- TGI (SR leukemia): 12.7 µM
- GI50 (SW-620 colon): 3.33 µM
- TGI (SW-620 colon): 13.2 µM
- GI50 (T-47D breast): 2.89 µM
- TGI (T-47D breast): 11.3 µM
- GI50 (TK-10 renal): 8.18 µM
- TGI (TK-10 renal): 21.3 µM
- GI50 (U251 CNS): 2 µM
- TGI (U251 CNS): 4.59 µM
- GI50 (UACC-257 melanoma): 2.59 µM
- TGI (UACC-257 melanoma): 12.7 µM
- GI50 (UACC-62 melanoma): 3.57 µM
- TGI (UACC-62 melanoma): 16.4 µM
- GI50 (UO-31 renal): 4.95 µM
- TGI (UO-31 renal): 17.4 µM
